The assay deals with calpain. The assay can be described thus: cell-based luminescent calpain activity assay.

Peptide text beside a SMILES is read from it. * marks the point of attachment. Cbz = O=C(OCc1ccccc1)*

As a reminder, the EC50 is the concentration needed to bring the measured effect to its halfway point. Low values mean an effect from little substance, high ones a need for much substance.

Consider `CC(C)[C@H](NC(=O)OCc1ccccc1)C(=O)N[C@H](C=O)Cc1ccccc1` [MDL-28170] (Cbz-Val-Phe-aldehyde), for which the EC50 worked out at 14 ± 1.4 µM.

The values above are taken from paper PMC2754199 (Journal of biomolecular screening, 2008).
